The record followed here is US5801152A, “Antracycline disaccharides, process for their preparation, and pharmaceutical compositions containing them” (A. Menarini Industrie Farmaceutiche Riunite S.r.l., priority 1993, dated 1998).

Data set [1] has as its system human ovarian carcinoma A2780. Put plainly: Effect against human ovarian carcinoma A2780 (in vivo), athymic mice. The note with it: for antitumor activity compared with doxorubicin (in words): against A2780 ovarian carcinoma; for toxicity deaths / tumor inhibition (Tumor Weight Inhibition %, TWI%): i.v., optimal dose: DXR 7 mg/Kg, IIa 8.5 mg/Kg (days 11, 18, 25), IIc 5 mg/Kg (days 11, 15, 18, 21, 25); for tumor inhibition (Tumor Weight Inhibition %, TWI%): determined 7-10 days after last treatment. Further details: species or system human tumor in athymic mice. The method, then:
(§1) For in vivo studies athymic mice were injected subcutaneous with tumor fragments in both flanks. Growth of tumors was followed by twice weekly caliper measurement of length and width. Tumor weight was calculated using the formula: mg=volume in mm^3 =width^2 ×length/2 (considering density=1).
(§2) The test compounds were delivered, at the optimal doses and schedules, intravenously (i.v.) to tumor-bearing mice starting at different times in the different tumors using (see experiments for details). The effects achieved by the treatments were expressed as Tumor Weight Inhibition % (TWI%) in treated versus control mice, determined 7-10 days after the last drug treatment.

The test system of another data set is MCF-7 (breast) cells. Put plainly: Cytotoxic activity in vitro, MTT assay, MCF-7 (breast). The format is cell-based. The note with it: Homo sapiens. Here is the method:
(§3) was tested, in comparison with doxorubicin, against a variety of human tumors of different histotypes including ovarian carcinoma, lung cancer , breast cancer, cervical carcinoma, colon cancer.
(§4) Cell survival, following test compound exposure, was evaluated by the growth inhibition test, with the exception of small cell lung cancer cell lines (SCLC). Cells in the logarithmic phase of growth were harvested and placed into 6-well. Twenty-four h after seeding, cells were exposed to test compounds for different times. After replacement with drug-free medium, cells were harvested and counted 72 h following compound exposure. In the case of SCLC, MCF-7 and LOVO, the MTT assay has been used and the colorimetric evaluation of survival was performed at the end of the incubation time (24 or 96 h). The results obtained from cytotoxicity experiments are expressed as IC50 (i.e., concentration required for 50% inhibition of cell growth).
(§5) The test compounds were dissolved in distilled water and then diluted in culture medium.
(In general: Formazan colour is commonly taken as a measure of viable cells.)

In another data set the test system is A431 (cervix) cells. In words: Cytotoxic activity in vitro, growth inhibition test, A431 (cervix). It counts as cell-based. The conditions noted are these: Homo sapiens. Here is the method:
as §3, §4, §5

The test system of a further data set is LOVO (colon) cells. Put plainly: Cytotoxic activity in vitro, MTT assay, LOVO (colon). The conditions noted are these: Homo sapiens. The format is cell-based. Here is the method:
as §3, §4, §5

The test system of data set [2] is human small cell lung carcinoma POVD. In words: Effect against human small cell lung carcinoma POVD (in vivo), athymic mice. On the set-up: species or system human tumor in athymic mice. The conditions noted are these: for antitumor activity (in words): SCLC tumor POVD; for toxicity deaths / tumor inhibition (Tumor Weight Inhibition %, TWI%): i.v., optimal dose: DXR 7 mg/Kg, IIa 8.5 mg/Kg (days 10, 17, 24), IIc 5 mg/Kg (days 10, 14, 17, 21, 24); for tumor inhibition (Tumor Weight Inhibition %, TWI%): determined 7-10 days after last treatment. Here is the method:
as §1, §2

For data set [3], the system named is H-460 (non-small cell lung cancer) cells. In words: Cytotoxic activity in vitro, growth inhibition test, H-460 (non-small cell lung cancer). The format is cell-based. The note with it: Homo sapiens. Here is the method:
as §3, §4, §5

Data set [4] has as its system POVD (small cell lung cancer) cells. In words: Cytotoxic activity in vitro, MTT assay, POVD (small cell lung cancer). The conditions noted are these: Homo sapiens. The format is cell-based. The method, then: as §3, §4, §5
The test system of a further data set is A2780 (ovarian) cells. In words: Cytotoxic activity in vitro, growth inhibition test, A2780 (ovarian). It counts as cell-based. The note with it: Homo sapiens. Here is the method: as §3, §4, §5
Setting [5] is: MCF7, MCF-7 (breast), drug exposure 24 h, read-out: IC50.
Setting [6] is: A-431, A431 (cervix), drug exposure 24 h, read-out: IC50.
Where [7] appears, read: LOVO (colon), drug exposure 24 h, read-out: IC50.
Setting [8] is: NCI-H460, H-460 (non-small cell lung cancer), drug exposure 24 h, read-out: IC50.
Where [9] appears, read: POVD (small cell lung cancer), drug exposure 96 h, read-out: IC50.
The mark [10] stands for this setting: A2780 (ovarian), drug exposure 24 h, read-out: IC50.

≈ marks a conversion by molar mass, not a printed value. Structures can show the parent of a compound that is named as a salt. Where two headings read alike, the source gives them in different places.

For orientation: IC50 means the concentration that gives 50% inhibition. For `C[C@@H]1O[C@@H](O[C@@H]2[C@H](C)O[C@@H](O[C@H]3C[C@](O)(C(=O)CO)Cc4c(O)c5c(c(O)c43)C(=O)c3ccccc3C5=O)C[C@@H]2O)C[C@H](N)[C@@H]1O` [IIc, 7-0-[2,6-dideoxy-4-0-(2,3,6-trideoxy-3amino-a-L-lyxo-exopyranosyl)-a-L-lyxo-exopyranosyl]-4-demethoxy-doxorubicinone hydrochloride], the “antitumor activity compared with doxorubicin (in words)” value in data set [1] is reported as “antitumor activity greatly superior to that of the parent compund”. The toxicity deaths in data set [1] and in data set [2] was 0/5 throughout. The “tumor inhibition (Tumor Weight Inhibition %, TWI%)” value in data set [1] is 99%; in data set [2] it was 91%. Besides, the half-inhibitory concentration (IC50) with MCF-7 (breast) cells (setting [5]) worked out at 0.0056 µg/mL; in the data set on A431 (cervix) cells (setting [6]), 0.016 µg/mL; with LOVO (colon) cells (setting [7]), 0.01 µg/mL; in data set [3] (setting [8]), 0.01 µg/mL; in data set [4] (setting [9]), 0.011 µg/mL; in the data set with A2780 (ovarian) cells (setting [10]), 0.005 µg/mL. In addition, the “antitumor activity (in words)” value in data set [2] was “very high antitumor activity”.

Consider `COc1cccc2c1C(=O)c1c(O)c3c(c(O)c1C2=O)C[C@@](O)(C(=O)CO)C[C@@H]3O[C@H]1C[C@H](N)[C@H](O)[C@H](C)O1` [DXR, doxorubicin, reference compound], for which the toxicity deaths in data set [1] and in data set [2] was 0/5 in each case. Moreover, the “tumor inhibition (Tumor Weight Inhibition %, TWI%)” value was found to be 68% in data set [1] and 44% in data set [2]. Moreover, the IC50 came out at 0.01 µg/mL (≈ 0.0184 µM) in the data set with MCF-7 (breast) cells (MCF7, 24 h); 0.036 µg/mL (≈ 0.0662 µM) with A431 (cervix) cells (A-431, 24 h); 0.01 µg/mL (≈ 0.0184 µM) with LOVO (colon) cells (LoVo, 24 h); 0.02 µg/mL (≈ 0.0368 µM) in data set [3] (NCI-H460, 24 h); 0.034 µg/mL (≈ 0.0626 µM) in data set [4] (96 h); 0.03 µg/mL (≈ 0.0552 µM) in the data set on A2780 (ovarian) cells (A2780, 24 h). For the same compound, the “antitumor activity (in words)” value in data set [2] was “refractory”.

For the compound `CC(=O)[C@]1(O)Cc2c(O)c3c(c(O)c2[C@@H](O[C@H]2C[C@H](O)[C@H](O[C@H]4C[C@H](N)[C@H](O)[C@H](C)O4)[C@H](C)O2)C1)C(=O)c1ccccc1C3=O` [IIa, 7-0-[2,6-dideoxy-4-0-(2,3,6-trideoxy-3-amino-a-L-lyxo-exopyranosyl)-a-L-lyxo-exopyranosyl]-4-demethoxy-daunorubicinone hydrochloride], the “antitumor activity compared with doxorubicin (in words)” value in data set [1] is listed as “at least the same effectiveness than doxorubicin”. For the same compound, the toxicity deaths in data set [1] and in data set [2] was 0/5 each time. The results for the “tumor inhibition (Tumor Weight Inhibition %, TWI%)” value in data set [1] and in data set [2] were 75% and 80%, respectively. Further, the concentration for half-maximal inhibition (IC50) was 0.01 µg/mL in the data set with MCF-7 (breast) cells (setting [5]); 0.012 µg/mL in the data set with A431 (cervix) cells (setting [6]); 0.0065 µg/mL in the data set on LOVO (colon) cells (setting [7]); 0.015 µg/mL in data set [3] (setting [8]); 0.015 µg/mL in data set [4] (setting [9]); 0.001 µg/mL in the data set on A2780 (ovarian) cells (setting [10]). In addition, in data set [2], the “antitumor activity (in words)” value was “very high antitumor activity”.

For the compound `C[C@@H]1O[C@@H](O[C@@H]2[C@H](C)O[C@@H](O[C@H]3C[C@](O)(C(=O)CO)Cc4c(O)c5c(c(O)c43)C(=O)c3ccccc3C5=O)C[C@@H]2O)C[C@H](O)[C@@H]1O` [IIb, 7-0-[2,6-dideoxy-4-0-(2,6-dideoxy-a-L-lyxo-exopyranosyl)-a-L-lyxo-exopyranosyl]-4-demethoxy-doxorubicinone hydrochloride], the IC50 with MCF-7 (breast) cells (setting [5]) was 0.015 µg/mL; in the data set with A431 (cervix) cells (setting [6]), 0.026 µg/mL; with LOVO (colon) cells (setting [7]), 0.0085 µg/mL; in data set [3] (setting [8]), 0.018 µg/mL; in data set [4] (setting [9]) it was 0.02 µg/mL; with A2780 (ovarian) cells (setting [10]), 0.01 µg/mL.
